# According to patent publication US20220288057A1, “CONJOINT THERAPY FOR TREATING SEIZURE DISORDERS” (XENON PHARMACEUTICALS INC., priority 2021, published 2022):
# Like-named read-outs stand apart in the source and are kept apart here.
# Legend:
# [1] = Terminal plasma and brain concentrations in AC-MES studies (UHPLC-MS/MS); format: in vivo, mouse
# Description: Sample Collection and Preparation: Mice were anesthetized by isoflurane inhalation (according to SOP TECH-018) until they reached a surgical plane of anesthesia. Then a syringe (1 mL syringe with a 22 gauge needle) was inserted under the sternum into the heart (according to SOP TECH-031). Approximately 0.5 mL of blood was collected, deposited into a K2EDTA tube, and stored on ice. Animals were then euthanized by cervical dislocation. Brains were removed, placed into a pre-weighed vial, and snap frozen on dry ice. At the end of the sample collection, blood was centrifuged at 4000 rpm for 10 minutes at 4° C., and the plasma pipetted into a labeled tube. All samples were stored in a −80° C. freezer until the time of bioanalysis.
# Plasma Samples: Extraction of plasma samples was carried out by protein precipitation using acetonitrile. Diluted plasma samples (50 μL) were mixed with 50 μL of internal standard (IS) solution in 1:1 acetonitrile:water (v:v) followed by addition of 200 μL of acetonitrile. Samples were vortexed for 30 seconds, centrifuged at 13,000 rpm for 20 minutes, decanted into a 96-well plate and further centrifuged at 4000 rpm for 20 minutes. The samples were analyzed by ultra-high performance liquid chromatography electrospray ionization tandem mass spectrometry (UHPLC-ESI-MS/MS) as described in the bioanalysis procedure below.
# Brain Samples: Prior to extraction, pre-weighed whole brains were homogenized in 1:1 acetonitrile:water (v:v) (2 mL per mouse brain) using an IKA T18 Ultra-Turrax Homogenizer at the setting of 4 for approximately 1 minute. The homogenate was centrifuged at 13,000 rpm for 20 minutes and 50 μL of the supernatant were treated exactly as described in above for plasma samples.
# Bioanalysis Procedures: All samples, including plasma and brain homogenate extracts (including calibration standards and quality control (QC) samples prepared in K2EDTA mouse plasma), were extracted by protein precipitation. To each 50 μL aliquot of sample, 50 μL of IS solution (2500 ng/mL of Lacosamide in water:acetonitrile (1:1)) and 50 μL of 6% (v:v) phosphoric acid in water were added, then 200 μL acetonitrile was added. The samples in 1.7 mL tubes were vortex-mixed then centrifuged for 20 minutes at 13,000 rpm. Fifty microliters of the supernatant was mixed with 150 μL of water:acetonitrile (1:1) in a 96 well plate, which was centrifuged post-mixing for 20 minutes at 4000 rpm. The samples were then ready for UHPLC-MS/MS analysis.
# Samples were analyzed for Compound A by a research-grade UHPLC-MS/MS method using the conditions listed below.
# Samples were analyzed for Lacosamide by a research-grade UHPLC-MS/MS method using the conditions listed below.
# At least three QC samples, one at each concentration, had to show back-calculated values within ±20% of their nominal concentrations for the whole sample batch to be valid.
# (§1) The Blinding and Randomization, Clinical Observations, AC-MES Assay, Sample Collection and Preparation, Plasma and Brain Samples Analysis, and Bioanalysis Procedures in Example 4 were identical to those used in Example 2.
# Sample concentration determination and Data Processing and Analysis in Example 4 was identical to Example 2.
# CF-1 mouse = test: Clinical observations / behavioral signs in AC-MES studies; format: in vivo
# Description: Any qualitative changes from normal behavior were recorded.
# Five oral (PO) doses of Compound A were each tested in the AC-MES model. Thirty minutes after administration of Compound A at 1 mg/kg (n=8), 3 mg/kg (n=8), 5 mg/kg (n=16), 7.5 mg/kg (n=7), and 10 mg/kg (n=17) via oral gavage to male CF-1 mice (body weights 28.2 to 43.8 g), the mice underwent a 60 Hz corneal electrical stimulus (0.2 seconds duration, 40 mA). This stimulus elicited a tonic hindlimb extension in all vehicle-dosed animals. […] An observational neurological assessment (qualitative test) was also conducted at the time of testing as a tolerability screen. Terminal plasma and brain samples were collected from all animals to obtain the levels of Compound A concentration, and to understand the relationship between efficacy and drug concentration.
# as §1
compound,measurement,setting,value
"NC(=O)O[C@@H](Cn1ncnn1)c1ccccc1Cl [Cenobamate, reference compound]",concentration at 2 h,"[1]; CF-1, mouse, in vivo, 3 mg/kg, Study 4D, Cenobamate 3 mg/kg single oral dose, 2 h pre-treatment, CF-1 mice, read-out: Mean Brain",8.7 µM
same,concentration at 2 h,"[1]; CF-1, mouse, in vivo, 3 mg/kg, Study 4D, Cenobamate 3 mg/kg single oral dose, 2 h pre-treatment, CF-1 mice, read-out: Mean Plasma",29.6 µM
same,concentration at 2 h,"[1]; CF-1, mouse, in vivo, 3 mg/kg, Study 4E, Cenobamate 3 mg/kg single oral dose, 2 h pre-treatment, CF-1 mice, read-out: Mean Brain",12.2 µM
same,concentration at 2 h,"[1]; CF-1, mouse, in vivo, 3 mg/kg, Study 4E, Cenobamate 3 mg/kg single oral dose, 2 h pre-treatment, CF-1 mice, read-out: Mean Plasma",27.7 µM
same,concentration at 2 h,"[1]; CF-1, mouse, in vivo, 5 mg/kg, Study 4E, Cenobamate 5 mg/kg single oral dose, 2 h pre-treatment, CF-1 mice, read-out: Mean Brain",22.1 µM
same,concentration at 2 h,"[1]; CF-1, mouse, in vivo, 5 mg/kg, Study 4E, Cenobamate 5 mg/kg single oral dose, 2 h pre-treatment, CF-1 mice, read-out: Mean Plasma",53.6 µM
same,concentration at 2 h,"[1]; CF-1, mouse, in vivo, 5 mg/kg, Study 4F, Cenobamate 5 mg/kg PO, 2 h, alone, read-out: mean plasma concentration",31.3 µM
same,concentration at 2 h,"[1]; CF-1, mouse, in vivo, 5 mg/kg, Study 4F, Cenobamate 5 mg/kg PO alone, 2 h pre-treatment, CF-1 mice, read-out: Mean Brain",12 µM
same,concentration at 2 h,"[1]; CF-1, mouse, in vivo, 5 mg/kg, Study 4F, Cenobamate 5 mg/kg PO alone, 2 h pre-treatment, CF-1 mice, read-out: Mean Plasma",31.3 µM
same,concentration at 2 h,"[1]; CF-1, mouse, in vivo, 7.5 mg/kg, Cenobamate 7.5 mg/kg PO, 2 h, alone, read-out: mean plasma concentration",78.1 µM
same,concentration at 2 h,"[1]; CF-1, mouse, in vivo, 7.5 mg/kg, Study 4E, Cenobamate 7.5 mg/kg single oral dose, 2 h pre-treatment, CF-1 mice, read-out: Mean Brain",34.5 µM
same,concentration at 2 h,"[1]; CF-1, mouse, in vivo, 7.5 mg/kg, Study 4E, Cenobamate 7.5 mg/kg single oral dose, 2 h pre-treatment, CF-1 mice, read-out: Mean Plasma",78.1 µM
same,concentration at 2 h,"[1]; CF-1, mouse, in vivo, 10 mg/kg, Cenobamate 10 mg/kg PO, 2 h, alone, read-out: mean plasma concentration",87 µM
same,concentration at 2 h,"[1]; CF-1, mouse, in vivo, 10 mg/kg, Study 4D, Cenobamate 10 mg/kg single oral dose, 2 h pre-treatment, CF-1 mice, read-out: Mean Brain",26.8 µM
same,concentration at 2 h,"[1]; CF-1, mouse, in vivo, 10 mg/kg, Study 4D, Cenobamate 10 mg/kg single oral dose, 2 h pre-treatment, CF-1 mice, read-out: Mean Plasma",87 µM
same,concentration at 2 h,"[1]; CF-1, mouse, in vivo, Study 4G, analyte Cenobamate, 5 mg/kg + 0.5 mg/kg Compound A, read-out: mean total plasma concentration",41.1 µM
same,concentration at 2 h,"[1]; CF-1, mouse, in vivo, Study 4G, analyte Cenobamate, 5 mg/kg + 1 mg/kg Compound A, read-out: mean total plasma concentration",39.7 µM
same,Kp at 2 h,"[1]; CF-1, mouse, in vivo, po, 3 mg/kg, Study 4D, Cenobamate 3 mg/kg single oral dose, read-out: B/P Ratio (brain to plasma ratio)",0.29
same,Kp at 2 h,"[1]; CF-1, mouse, in vivo, po, 3 mg/kg, Study 4E, Cenobamate 3 mg/kg single oral dose, read-out: B/P Ratio (brain to plasma ratio)",0.44
same,Kp at 2 h,"[1]; CF-1, mouse, in vivo, po, 5 mg/kg, Study 4E, Cenobamate 5 mg/kg single oral dose, read-out: B/P Ratio (brain to plasma ratio)",0.41
same,Kp at 2 h,"[1]; CF-1, mouse, in vivo, po, 5 mg/kg, Study 4F, Cenobamate 5 mg/kg PO alone, read-out: B/P Ratio (brain to plasma ratio)",0.38
same,Kp at 2 h,"[1]; CF-1, mouse, in vivo, po, 7.5 mg/kg, Study 4E, Cenobamate 7.5 mg/kg single oral dose, read-out: B/P Ratio (brain to plasma ratio)",0.44
same,Kp at 2 h,"[1]; CF-1, mouse, in vivo, po, 10 mg/kg, Study 4D, Cenobamate 10 mg/kg single oral dose, read-out: B/P Ratio (brain to plasma ratio)",0.31
same,Kp,"[1]; CF-1, mouse, in vivo, po, 30 mg/kg, Study 4D, Cenobamate 30 mg/kg single oral dose, read-out: B/P Ratio (brain to plasma ratio)",0.3
same,concentration at 2 h,"[1]; Study 4D, Cenobamate 30 mg/kg single oral dose, CF-1 mice, read-out: Mean Brain",71.3 µM
same,concentration at 2 h,"[1]; Study 4D, Cenobamate 30 mg/kg single oral dose, CF-1 mice, read-out: Mean Plasma",237 µM
same,"Mean Brain, Cenobamate","[1]; Study 4F, Cenobamate 5 mg/kg PO (2 h) in combination with Compound A 2 mg/kg PO (0.5 h)",14.7 µM
same,"Mean Brain, Cenobamate","[1]; Study 4G, Cenobamate 5 mg/kg PO (2 h) in combination with Compound A 0.5 mg/kg PO (0.5 h)",18.1 µM
same,"Mean Brain, Cenobamate","[1]; Study 4G, Cenobamate 5 mg/kg PO (2 h) in combination with Compound A 1 mg/kg PO (0.5 h)",17.0 µM
same,Fraction with Behavioral Signs,"CF-1 mouse; Study 4D, Cenobamate 3 mg/kg single oral dose",0/8
same,Fraction with Behavioral Signs,"CF-1 mouse; Study 4D, Cenobamate 10 mg/kg single oral dose",0/8
same,Fraction with Behavioral Signs,"CF-1 mouse; Study 4D, Cenobamate 30 mg/kg single oral dose",0/8
same,Fraction with Behavioral Signs,"CF-1 mouse; Study 4E, Cenobamate 3 mg/kg single oral dose",0/8
same,Fraction with Behavioral Signs,"CF-1 mouse; Study 4E, Cenobamate 5 mg/kg single oral dose",0/8
same,Fraction with Behavioral Signs,"CF-1 mouse; Study 4E, Cenobamate 7.5 mg/kg single oral dose",0/8
same,Fraction with Behavioral Signs,"CF-1 mouse; Study 4F, Cenobamate 5 mg/kg PO alone",0/8
